From patent US5541174A, “Analgesic method” (priority 1995, dated 1996)
Where two headings read alike, the source gives them in different places.

Legend:
[1] = tested on: acetic acid induced writhing in mice; test: Acetic acid-induced writhing test; assay type: in vivo, ICR male mice; conditions: for activity versus other copper complexes and parent ligand: Table VI
Method: 1. Acetic acid-induced writhing test as described in Koster et al., "Acetic Acid for Analgesic Screening", Fed. Proc. 18, 412 (1959), incorporated by reference herein; and
Groups of 10 ICR male mice (Taisho Pharmaceutical Co. Research Center) were used to study each dose of every compound. Ligands or complexes were administered orally or subcutaneously in 0.1 ml of vehicle per 10 g of body weight 30 minutes before the intrapertioneal injection of 0.1 ml of 0.7% acetic acid solution per 10 g of body weight. Number of writhes were counted for each mouse during a period of 10 to 20 min after acetic acid injection. Inhibitory percent was calculated by comparison with the number of writhes in the non-treated control, vehicle-treated, and acetic acid-injected group. The ED50 value and 95% confidence limits were calculated from the inhibitory percent by the method of Litchfield and Wilcoxon.

[2] = tested on: adjuvant-induced arthritic pain in rats; test: Adjuvant-induced arthritic pain; assay type: in vivo, male Sprague-Dawley rats
Text: 2. Adjuvant-induced arthritic pain as described in:
S. KUZNA, et al., Measurement of Arthritic Pain and Effects of Analgesics in the Adjuvant-Treated Rat, Chem. Pharm. Bull. 23, 1184-1191 (1975);
C. A. WINTER, et al., Analgesic Activity of Diflunisal in Rats with Hyperalygesia Induced by Freud's Adjuvant, J. Pharmacol. Exp. Ther. 211, 678-685 (1979; and
M. E. ROSENTHALE, et al., Adjuvant Arthritis:Immuno-Pathological and Hyperalgesic Features, Fed. Proced. 41, 2577-2582 (1982),
incorporated by reference herein.
Groups of 5-6 male Sprague-Dawley rats (Taisho Pharmaceutical Co. Research Center) weighing 140 to 160 g at the time of Mycobacterium butyricum (adjuvant, Difco Laboratories, Detroit, Mich.) injection were used to study each compound. Rats were injected intradermally at the base of the tail with 0.1 ml of a parafin oil suspension of 0.5 mg of heat-killed mycobacterium. Fifteen to 19 days later, drugs were administered orally or subcutaneously in 0.5 ml of vehicle per 100 g of body weight to rats showing the nociceptive reaction, vocalization following a gentle flexion of the tarsal-tibial joint of the inflamed hind-paw. Vocalization responses were measured every hour for 5 hours. […] The ED50 value and 95% confidence limits were calculated from the positive rate for non-treated controls, vehicle-treated adjuvant arthritic rats, by the method of Litchfield and Wilcoxin.
All drugs were suspended with 5% gum arabic in saline solution or wetted with enough propylene glycol to give a final concentration of 4% propylene glycol and the wetted solid suspended in 1.4% polyvinyl alcohol in saline.

[3] = oral, 5% gum arabic, 0.45 mmol/kg
[4] = oral, 5% gum arabic, 0.90 mmol/kg
[5] = oral, 5% gum arabic, 1.46 mmol/kg
[6] = oral, 5% gum arabic, 0.56 mmol/kg
[7] = oral, 5% gum arabic, 1.11 mmol/kg
[8] = oral, 5% gum arabic, 0.20 mmol/kg
[9] = oral, 5% gum arabic, 0.40 mmol/kg
[10] = oral, 5% gum arabic, 0.42 mmol/kg
[11] = oral, 5% gum arabic, 0.33 mmol/kg
[12] = oral, 5% gum arabic, 0.30 mmol/kg
[13] = oral, 5% gum arabic, 0.60 mmol/kg

CC(C)c1cc(C(=O)O)c(O)c(C(C)C)c1 [3,5-Dips, 3,5-diisopropylsalicylic acid, reference compound]
ED50 ([1]; oral, 5% gum arabic in saline): 0.27 mmol/kg | % Inhibition [1, 3]: 66% | % Inhibition [1, 4]: 88% | ED50 ([1]; oral, PG-PVA in saline): 0.44 mmol/kg | % Inhibition ([1]; oral, PG-PVA, 0.45 mmol/kg): 56% | % Inhibition ([1]; oral, PG-PVA, 0.90 mmol/kg): 78% | ED50 ([1]; s.c., PG-PVA in saline): 0.23 mmol/kg | % Inhibition ([1]; s.c., PG-PVA, 0.11 mmol/kg): 22% | % Inhibition ([1]; s.c., PG-PVA, 0.23 mmol/kg): 49% | % Inhibition ([1]; s.c., PG-PVA, 0.45 mmol/kg): 91% | ED50 ([2]; oral, 5% gum arabic in saline): 0.36 mmol/kg | % Inhibition ([2]; oral, 5% gum arabic, 0.22 mmol/kg): 30% | % Inhibition [2, 3]: 53% | % Inhibition [2, 4]: 92% | ED50 ([2]; oral, PG-PVA in saline): > 0.90 mmol/kg | % Inhibition ([2]; oral, PG-PVA, 0.45 mmol/kg): 27% | % Inhibition ([2]; oral, PG-PVA, 0.90 mmol/kg): 43%

Nc1ccccc1C(=O)O [Anthranilic acid, reference compound]
ED50 ([1]; oral, 5% gum arabic in saline): > 1.46 mmol/kg | % Inhibition [1, 5]: 18% | ED50 ([1]; oral, PG-PVA in saline): > 2.19 mmol/kg | % Inhibition ([1]; oral, PG-PVA, 2.19 mmol/kg): 45% | ED50 ([1]; s.c., PG-PVA in saline): 0.64 mmol/kg | % Inhibition ([1]; s.c., PG-PVA, 0.27 mmol/kg): 30% | % Inhibition ([1]; s.c., PG-PVA, 0.55 mmol/kg): 36% | % Inhibition ([1]; s.c., PG-PVA, 1.09 mmol/kg): 71% | ED50 ([2]; oral, 5% gum arabic in saline): 0.83 mmol/kg | % Inhibition ([2]; oral, 5% gum arabic, 0.36 mmol/kg): 23% | % Inhibition ([2]; oral, 5% gum arabic, 0.73 mmol/kg): 41% | % Inhibition [2, 5]: 73% | ED50 ([2]; oral, PG-PVA in saline): > 1.44 mmol/kg | % Inhibition ([2]; oral, PG-PVA, 1.46 mmol/kg): 37%

CC(=O)Oc1ccccc1C(=O)O [Aspirin, acetylsalicylic acid, reference compound]
ED50 ([1]; oral, 5% gum arabic in saline): 1.30 mmol/kg | % Inhibition [1, 6]: 29% | % Inhibition [1, 7]: 42% | % Inhibition ([1]; oral, 5% gum arabic, 2.22 mmol/kg): 66% | ED50 ([1]; oral, PG-PVA in saline): 0.48 mmol/kg | % Inhibition ([1]; oral, PG-PVA, 0.21 mmol/kg): 32% | % Inhibition ([1]; oral, PG-PVA, 0.42 mmol/kg): 41% | % Inhibition ([1]; oral, PG-PVA, 0.84 mmol/kg): 67% | ED50 ([1]; s.c., PG-PVA in saline): 0.52 mmol/kg | % Inhibition ([1]; s.c., PG-PVA, 0.28 mmol/kg): 28% | % Inhibition ([1]; s.c., PG-PVA, 0.56 mmol/kg): 57% | % Inhibition ([1]; s.c., PG-PVA, 1.11 mmol/kg): 71% | ED50 ([2]; oral, 5% gum arabic in saline): 0.62 mmol/kg | % Inhibition ([2]; oral, 5% gum arabic, 0.28 mmol/kg): 27% | % Inhibition [2, 6]: 43% | % Inhibition [2, 7]: 70% | ED50 ([2]; oral, PG-PVA in saline): 1.41 mmol/kg | % Inhibition ([2]; oral, PG-PVA, 0.56 mmol/kg): 30% | % Inhibition ([2]; oral, PG-PVA, 1.11 mmol/kg): 40% | % Inhibition ([2]; oral, PG-PVA, 2.22 mmol/kg): 63%

CC(C)c1cc(C(=O)[O-])c(O)c(C(C)C)c1.CC(C)c1cc(C(=O)[O-])c(O)c(C(C)C)c1.[Cu+2] [Cu(II)(3,5-dips)2]
ED50 ([1]; oral, 5% gum arabic in saline): 0.40 mmol/kg | analgesic effectiveness versus parent ligand ([1]; oral, 5% gum arabic in saline): slightly less effective than its parent ligand | % Inhibition [1, 8]: 35% | % Inhibition [1, 9]: 48% | % Inhibition ([1]; oral, 5% gum arabic, 0.80 mmol/kg): 66% | analgesic effectiveness versus parent ligand ([1]; oral, PG-PVA): only as effective as its parent ligand | ED50 ([1]; oral, PG-PVA in saline): 0.43 mmol/kg | % Inhibition ([1]; oral, PG-PVA, 0.20 mmol/kg): 26% | % Inhibition ([1]; oral, PG-PVA, 0.40 mmol/kg): 56% | % Inhibition ([1]; oral, PG-PVA, 0.79 mmol/kg): 62% | ED50 ([1]; s.c., PG-PVA in saline): 0.20 mmol/kg | % Inhibition ([1]; s.c., PG-PVA, 0.10 mmol/kg): 27% | % Inhibition ([1]; s.c., PG-PVA, 0.20 mmol/kg): 45% | % Inhibition ([1]; s.c., PG-PVA, 0.40 mmol/kg): 74% | analgesic effectiveness versus parent ligand ([2]; oral, 5% gum arabic): essentially equipotent with its ligand | ED50 ([2]; oral, 5% gum arabic in saline): 0.43 mmol/kg | % Inhibition ([2]; oral, 5% gum arabic, 0.10 mmol/kg): 7% | % Inhibition [2, 8]: 20% | % Inhibition [2, 9]: 47% | analgesic effectiveness versus parent ligand ([2]; oral, PG-PVA): more effective than its parent ligand | ED50 ([2]; oral, PG-PVA in saline): > 0.40 mmol/kg | % Inhibition ([2]; oral, PG-PVA, 0.40 mmol/kg): 40% | ED50 ([2]; s.c., PG-PVA in saline): 0.12 mmol/kg | % Inhibition ([2]; s.c., PG-PVA, 0.05 mmol/kg): 23% | % Inhibition ([2]; s.c., PG-PVA, 0.10 mmol/kg): 37% | % Inhibition ([2]; s.c., PG-PVA, 0.20 mmol/kg): 70%

C[C@H](N)C(=O)[O-].C[C@H](N)C(=O)[O-].[Cu+2] [Cu(II)(L-alaninate)2]
activity versus other copper complexes and parent ligand [1]: less active than the other copper complexes | ED50 ([1]; oral, 5% gum arabic in saline): 0.92 mmol/kg | % Inhibition [1, 10]: 22% | % Inhibition ([1]; oral, 5% gum arabic, 0.83 mmol/kg): 48% | % Inhibition ([1]; oral, 5% gum arabic, 1.67 mmol/kg): 71% | ED50 ([2]; oral, 5% gum arabic in saline): > 0.42 mmol/kg | % Inhibition [2, 10]: 0%

N[C@@H](CSSC[C@H](N)C(=O)[O-])C(=O)[O-].[Cu+2] [Cu(II)(L-cystinate)]
activity versus other copper complexes and parent ligand [1]: less active than the other copper complexes | ED50 ([1]; oral, 5% gum arabic in saline): > 0.33 mmol/kg | % Inhibition [1, 11]: 35% | ED50 ([2]; oral, 5% gum arabic in saline): > 0.33 mmol/kg | % Inhibition [2, 11]: 0%

Nc1ccccc1C(=O)[O-].Nc1ccccc1C(=O)[O-].[Cu+2] [Cu(II)(anthranilate)2, Bisanthranilato(O,N)copper(II)]
ED50 ([1]; oral, 5% gum arabic in saline): 0.50 mmol/kg | analgesic effectiveness versus parent ligand ([1]; oral, 5% gum arabic in saline): more effective than their parent ligands | % Inhibition ([1]; oral, 5% gum arabic, 0.15 mmol/kg): 25% | % Inhibition [1, 12]: 47% | % Inhibition [1, 13]: 50% | analgesic effectiveness versus parent ligand ([1]; oral, PG-PVA): more effective than their parent ligands | ED50 ([1]; oral, PG-PVA in saline): > 0.89 mmol/kg | ED50 ([1]; s.c., PG-PVA in saline): 0.22 mmol/kg | % Inhibition ([1]; s.c., PG-PVA, 0.07 mmol/kg): 30% | % Inhibition ([1]; s.c., PG-PVA, 0.15 mmol/kg): 42% | % Inhibition ([1]; s.c., PG-PVA, 0.30 mmol/kg): 57% | analgesic effectiveness versus parent ligand ([2]; oral, 5% gum arabic): less effective than its parent ligand | ED50 ([2]; oral, 5% gum arabic in saline): > 0.60 mmol/kg | % Inhibition [2, 12]: 0% | % Inhibition [2, 13]: 10% | analgesic effectiveness versus parent ligand ([2]; oral, PG-PVA): less effective than its parent ligand | ED50 ([2]; oral, PG-PVA in saline): > 0.60 mmol/kg | % Inhibition ([2]; oral, PG-PVA, 0.60 mmol/kg): 17% | ED50 ([2]; s.c., PG-PVA in saline): 0.19 mmol/kg | % Inhibition ([2]; s.c., PG-PVA, 0.07 mmol/kg): 20% | % Inhibition ([2]; s.c., PG-PVA, 0.15 mmol/kg): 43% | % Inhibition ([2]; s.c., PG-PVA, 0.30 mmol/kg): 63%

[Cl][Cu][Cl] [Cu(II)(chloride)2, reference compound]
ED50 ([1]; s.c., PG-PVA in saline): 0.60 mmol/kg | % Inhibition ([1]; s.c., PG-PVA, 0.56 mmol/kg): 48% | % Inhibition ([1]; s.c., PG-PVA, 1.12 mmol/kg): 69% | % Inhibition ([1]; s.c., PG-PVA, 2.24 mmol/kg): 83% | analgesic activity ([2]; doses statistically significantly analgesic in the writhing model): devoid of analgesic activity | ED50 ([2]; oral, PG-PVA in saline): > 2.24 mmol/kg | % Inhibition ([2]; oral, PG-PVA, 2.24 mmol/kg): 0% | ED50 ([2]; s.c., PG-PVA in saline): > 2.24 mmol/kg | % Inhibition ([2]; s.c., PG-PVA, 2.24 mmol/kg): 3%

NCC(=O)[O-].NCC(=O)[O-].[Cu+2] [Cu(II)(glycinate)2]
activity versus other copper complexes and parent ligand [1]: less active than the other copper complexes | ED50 ([1]; oral, 5% gum arabic in saline): > 1.89 mmol/kg | % Inhibition ([1]; oral, 5% gum arabic, 1.89 mmol/kg): 48%

NCC(=O)O [Glycine, reference compound]
ED50 ([1]; oral, 5% gum arabic in saline): > 5.33 mmol/kg | % Inhibition ([1]; oral, 5% gum arabic, 5.33 mmol/kg): 36%

C[C@H](N)C(=O)O [L-alanine, reference compound]
ED50 ([1]; oral, 5% gum arabic in saline): > 4.49 mmol/kg | % Inhibition ([1]; oral, 5% gum arabic, 4.49 mmol/kg): 14%

N[C@@H](CS)C(=O)O [L-cysteine, reference compound]
ED50 ([1]; oral, 5% gum arabic in saline): > 3.30 mmol/kg | % Inhibition ([1]; oral, 5% gum arabic, 3.30 mmol/kg): -5%

CN1CC[C@]23c4c5ccc(O)c4O[C@H]2[C@@H](O)C=C[C@H]3[C@H]1C5 [morphine, reference compound]
ED50 ([2]; Rattus norvegicus, sc, read-out: ED50 (AA)): 0.002 mmol/kg | ED50 (AA) ([2]; s.c., hydrochloride salt in saline): 0.002 mmol/kg | % Inhibition ([2]; s.c., hydrochloride salt in saline, 0.001 mmol/kg): 20% | % Inhibition ([2]; s.c., hydrochloride salt in saline, 0.002 mmol/kg): 40% | % Inhibition ([2]; s.c., hydrochloride salt in saline, 0.004 mmol/kg): 60%
